US12533337B2, “Pharmaceutical drug containing heterocyclidene acetamide derivative” (SENJU PHARMACEUTICAL CO., LTD., priority 2019, dated 2026)
Entries after “also recorded” stand apart in the source; their conditions may differ.

Experiments:
Format in all cases: in vivo
[1] = system: rat scopolamine-induced dry eye model; assay: Number of blinks under a low humidity environment in a rat scopolamine-induced dry eye model; settings: for number of blinks within 5 minutes / number of blinks within 5 minutes vs vehicle at 0.5 hours: single administration; for number of blinks within 5 minutes: 0.5 hours after
Protocol: Compound (1) was used as a tested substance. In the same manner as Test Example 1, compound (1) was suspended in a buffer to prepare suspension eye drops with a concentration of compound (1) of 0.1 w/v %, 0.3 w/v %, and 1.0 w/v %. A compound (1)-free vehicle eye drop consisting of only a vehicle was also prepared as a control group.
A rat scopolamine-induced dry eye model was prepared by the same method as Test Example 1.
After about 2.5 hours from implanting an osmotic pump, dry air supplied from an air compressor was sent into an experiment chamber (SJ-1500N, Natsume Seisakusho) to create a low humidity environment (20% RH or lower).
5 μL of a vehicle eye drop or 0.1 w/v %, 0.3 w/v %, or 1.0 w/v % compound (1) suspension eye drop was administered once to the right eye using a micropipette, 0.5 hours before measuring the number of blinks.
After 8 days or more from starting raising the rats in a low humidity environment, the rats were taken out from a breeding cage. The animals were placed in a cage comprised of chain link fencing on all sides (behavior measurement environment cage) to facilitate measurement of the number of blinks. After acclimation for 0.5 hours under a normal environment, the behavior measurement environment cage was transferred to an experiment chamber, and the number of blinks of the right eye of rats was measured for 5 minutes under a low humidity environment. A test was conducted in four separate phases using the same animals after a drug withdrawal period of 2 days or more (crossover test).
By using the same evaluation method as Text Example 2, the sustainability of an effect of improving a subjective symptom was examined.
(§1) 1.0 w/v % compound (1) suspension eye drop was administered for an extended period using a rat scopolamine-induced dry eye model prepared by the same method as Test Example 2. The model was treated under a low humidity environment (20% RH or less) only when measuring the number of blinks.
(§2) 5 μL of 1.0 w/v % compound (1) suspension eye drop and vehicle eye drop was administered to the right eye 4 times a day by using a micropipette.
(§3) An effect of improving SPK (SPK score) was evaluated by the same method as Test Example 1 on day 8 of sample administration. The number of blinks of the right eye was measured for 5 minutes under a low humidity environment after 4 hours from the initial administration on day 7 of administration (2 weeks post-surgery) by the same method as Text Example 2.

[2] = system: Vi/Vc zone of the medulla oblongata; assay: Measurement of c-Fos positive cell count in the Vi/Vc zone of the medulla oblongata, rat scopolamine-induced dry eye model; settings: 0.3 w/v % suspension eye drop
Protocol: 5 μL of eye drop was administered to the right eye using a micropipette, 4 times a day with an interval of 2 hours or longer. A vehicle eye drop was administered to the Sham group.
After a rat was allowed to bleed to death by perfusion of saline, Zamboni's Fixative was perfused to extract the medulla oblongata. After sectioning the extracted medulla oblongata, the medulla oblongata was stained by immunohistochemical staining by using an anti-c-Fos antibody (product name: Rabbit Anti-Human c-Fos Polyclonal Antibody, sc-52, Santa Cruz Biotechnology, Inc.).

[3] = system: rat scopolamine-induced dry eye model; assay: Observation of superficial punctate keratitis (SPK) in a rat scopolamine-induced dry eye model
Protocol: as §1, §2, §3

O=C(/C=C1\CCOc2cc(C(F)(F)F)ccc21)Nc1cccc2c1C[C@H](O)CC2 [compound (1), (E)-2-(7-trifluoromethylchroman-4-ylidene)-N-((7R)-7-hydroxy-5,6,7,8-tetrahydronaphthalen-1-yl)acetamide] was tested, and the “number of blinks within 5 minutes” value ([1]; 0.1 w/v % suspension eye drop, low humidity) was “reduced”, the “number of blinks within 5 minutes” value ([1]; 0.3 w/v % suspension eye drop, low humidity) was “significant effect” and the “number of blinks within 5 minutes compared to a vehicle eye drop” value ([1]; 1.0 w/v % suspension eye drop, repeated administration 4 times a day, 4 hours after initial administration on day 7, low humidity (Example 4)) was “reduced”. For the same compound, the “number of blinks within 5 minutes” value ([1]; 1.0 w/v % suspension eye drop, low humidity (Test Example 2)) was “significant effect”, the “number of blinks within 5 minutes vs vehicle at 0.5 hours” value (from here on “number … vs vehicle at 0.5 hours”) ([1]; 1.0 w/v % suspension eye drop, after 0.5 hours (Example 3)) was “significantly reduced; also recorded: reduced significantly” and the “number … vs vehicle at 0.5 hours” value ([1]; 1.0 w/v % suspension eye drop, after 4 hours (Example 3)) was “significantly reduced; also recorded: reduced significantly”. For the same compound, the “number … vs vehicle at 0.5 hours” value ([1]; 1.0 w/v % suspension eye drop, after 8 hours (Example 3)) was “reduced”, the “c-Fos positive cell count in the Vi/Vc zone of the medulla oblongata compared to a vehicle eye drop” value ([2]; 14 days of administration) was “reduced” and the “c-Fos positive cell count” value ([2]; SCOP model, 5 μL right eye 4 times a day for 14 days, Vi/Vc zone, 22 days post-surgery) was 8.8 ± 3.8 cells/section. For the same compound, the “SPK score compared to a vehicle eye drop” value ([3]; 0.3 w/v % suspension eye drop, after 7 days from administration (15 days post-surgery)) was “significantly reduced”, the “SPK score effect compared to a vehicle eye drop” value ([3]; 0.3 w/v % suspension eye drop, after 14 days from administration (22 days post-surgery)) was “sustained” and the “SPK score compared to a vehicle eye drop” value ([3]; 1.0 w/v % suspension eye drop, 4 times a day, 8 days of repeated administration (Example 4)) was “significantly reduced”.
